Measured values as given in PubChem BioAssay (NCI).
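Compound exposure: 48 hours, 5 concentrations, 96-well plates. GI50 is the concentration that inhibits growth by half. The concentration for full growth arrest is given as TGI.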

Experiments:
Assay in all cases: DTP human tumour cell line panel, 48 h
HT29 colon = tested on: HT29 colon
NCI-H522 lung = tested on: NCI-H522 lung
A549 NSCLC = tested on: A549 NSCLC
T-47D breast = tested on: T-47D breast
SF-268 CNS = tested on: SF-268 CNS
SNB-75 CNS = tested on: SNB-75 CNS
MDA-MB-231 breast = tested on: MDA-MB-231 breast
SF-295 CNS = tested on: SF-295 CNS
TK-10 renal = tested on: TK-10 renal
HCT-15 colon = tested on: HCT-15 colon
PC-3 prostate = tested on: PC-3 prostate
SR leukemia = tested on: SR leukemia
K-562 leukemia = tested on: K-562 leukemia
SK-OV-3 ovarian = tested on: SK-OV-3 ovarian
MALME-3M melanoma = tested on: MALME-3M melanoma
SK-MEL-28 melanoma = tested on: SK-MEL-28 melanoma
HS 578T breast = tested on: HS 578T breast
COLO 205 colon = tested on: COLO 205 colon
HOP-62 NSCLC = tested on: HOP-62 NSCLC
786-0 renal = tested on: 786-0 renal
U251 CNS = tested on: U251 CNS
UACC-62 melanoma = tested on: UACC-62 melanoma
HCT-116 colon = tested on: HCT-116 colon
RXF 393 renal = tested on: RXF 393 renal
BT-549 breast = tested on: BT-549 breast
MDA-MB-435 = tested on: MDA-MB-435
NCI-H23 lung = tested on: NCI-H23 lung
CCRF-CEM leukemia = tested on: CCRF-CEM leukemia
HL-60(TB) leukemia = tested on: HL-60(TB) leukemia
SN12C renal = tested on: SN12C renal
NCI/ADR-RES ovarian = tested on: NCI/ADR-RES ovarian
LOX IMVI melanoma = tested on: LOX IMVI melanoma
HOP-92 NSCLC = tested on: HOP-92 NSCLC
CAKI-1 renal = tested on: CAKI-1 renal
MCF7 breast = tested on: MCF7 breast
SW-620 colon = tested on: SW-620 colon
SK-MEL-5 melanoma = tested on: SK-MEL-5 melanoma
EKVX NSCLC = tested on: EKVX NSCLC
OVCAR-8 ovarian = tested on: OVCAR-8 ovarian
UO-31 renal = tested on: UO-31 renal
SK-MEL-2 melanoma = tested on: SK-MEL-2 melanoma
NCI-H226 lung = tested on: NCI-H226 lung
ACHN renal = tested on: ACHN renal
NCI-H460 lung = tested on: NCI-H460 lung
OVCAR-5 ovarian = tested on: OVCAR-5 ovarian
OVCAR-4 ovarian = tested on: OVCAR-4 ovarian
RPMI-8226 leukemia = tested on: RPMI-8226 leukemia
MOLT-4 leukemia = tested on: MOLT-4 leukemia
OVCAR-3 ovarian = tested on: OVCAR-3 ovarian
DU-145 prostate = tested on: DU-145 prostate
KM12 colon = tested on: KM12 colon
A498 renal = tested on: A498 renal
M14 melanoma = tested on: M14 melanoma
HCC-2998 colon = tested on: HCC-2998 colon
SNB-19 CNS = tested on: SNB-19 CNS
SF-539 CNS = tested on: SF-539 CNS
IGROV1 ovarian = tested on: IGROV1 ovarian

In the case of `Cc1c([C@H](C(Cl)Cl)[C@H](O)[C@H]2C[C@H](C)C(=O)O2)ccc2c1C(=O)[C@H]1[C@H]2C[C@@H](Br)[C@@]23O[C@@H](CO[C@H]2O)CC13C` (stereo partly specified), the GI50 (HT29 colon) was 179 nM, the TGI (HT29 colon) was over 50000 nM and the GI50 (NCI-H522 lung) was 183 nM. For the same molecule, the TGI (NCI-H522 lung) was 1690 nM, the GI50 (A549 NSCLC) was 435 nM and the TGI (A549 NSCLC) was over 50000 nM. The GI50 (T-47D breast) was 258 nM, the TGI (T-47D breast) was over 50000 nM and the GI50 (SF-268 CNS) was 586 nM. The TGI (SF-268 CNS) was over 50000 nM, the GI50 (SNB-75 CNS) was 454 nM and the TGI (SNB-75 CNS) was over 50000 nM. The GI50 (MDA-MB-231 breast) was 561 nM, the TGI (MDA-MB-231 breast) was over 15200 nM and the GI50 (SF-295 CNS) was 220 nM. The TGI (SF-295 CNS) was 2530 nM, the GI50 (TK-10 renal) was 1680 nM and the TGI (TK-10 renal) was over 50000 nM. For the same molecule, the GI50 (HCT-15 colon) was 373 nM, the TGI (HCT-15 colon) was over 50000 nM and the GI50 (PC-3 prostate) was 330 nM. For the same molecule, the TGI (PC-3 prostate) was over 50000 nM, the GI50 (SR leukemia) was 153 nM and the TGI (SR leukemia) was over 50000 nM. For the same molecule, the GI50 (K-562 leukemia) was 217 nM, the TGI (K-562 leukemia) was over 50000 nM and the GI50 (SK-OV-3 ovarian) was 292 nM. For the same molecule, the TGI (SK-OV-3 ovarian) was 4070 nM, the GI50 (MALME-3M melanoma) was 275 nM and the TGI (MALME-3M melanoma) was over 50000 nM. The TGI (SK-MEL-28 melanoma) was over 50000 nM, the GI50 (HS 578T breast) was 708 nM and the TGI (HS 578T breast) was over 39500 nM. It also gave a GI50 (COLO 205 colon) of 213 nM, a TGI (COLO 205 colon) of 1090 nM and a GI50 (HOP-62 NSCLC) of 571 nM. For the same molecule, the TGI (HOP-62 NSCLC) was over 50000 nM, the GI50 (786-0 renal) was 481 nM and the TGI (786-0 renal) was 21900 nM. The GI50 (U251 CNS) was 262 nM, the TGI (U251 CNS) was over 50000 nM and the GI50 (UACC-62 melanoma) was 324 nM. It also gave a TGI (UACC-62 melanoma) of over 50000 nM, a GI50 (HCT-116 colon) of 206 nM and a TGI (HCT-116 colon) of 5070 nM. The GI50 (RXF 393 renal) was 467 nM, the GI50 (BT-549 breast) was 1010 nM and the TGI (BT-549 breast) was over 36300 nM. It also gave a GI50 (MDA-MB-435) of 136 nM, a TGI (MDA-MB-435) of 425 nM and a GI50 (NCI-H23 lung) of 295 nM. It also gave a TGI (NCI-H23 lung) of over 15300 nM, a GI50 (CCRF-CEM leukemia) of 330 nM and a TGI (CCRF-CEM leukemia) of over 50000 nM. For the same molecule, the GI50 (HL-60(TB) leukemia) was 112 nM, the TGI (HL-60(TB) leukemia) was over 50000 nM and the GI50 (SN12C renal) was 881 nM. For the same molecule, the TGI (SN12C renal) was over 50000 nM, the GI50 (NCI/ADR-RES ovarian) was 2170 nM and the TGI (NCI/ADR-RES ovarian) was 11000 nM. It also gave a GI50 (LOX IMVI melanoma) of 602 nM, a TGI (LOX IMVI melanoma) of over 50000 nM and a GI50 (HOP-92 NSCLC) of 636 nM. For the same molecule, the TGI (HOP-92 NSCLC) was over 45300 nM, the GI50 (CAKI-1 renal) was 798 nM and the TGI (CAKI-1 renal) was over 29500 nM. It also gave a GI50 (MCF7 breast) of 172 nM, a TGI (MCF7 breast) of over 50000 nM and a GI50 (SW-620 colon) of 309 nM. The TGI (SW-620 colon) was over 50000 nM, the GI50 (SK-MEL-5 melanoma) was 186 nM and the TGI (SK-MEL-5 melanoma) was 3970 nM. For the same molecule, the GI50 (EKVX NSCLC) was 695 nM, the TGI (EKVX NSCLC) was over 50000 nM and the GI50 (OVCAR-8 ovarian) was 449 nM. For the same molecule, the TGI (OVCAR-8 ovarian) was over 50000 nM, the GI50 (UO-31 renal) was 8890 nM and the TGI (UO-31 renal) was over 50000 nM. For the same molecule, the GI50 (SK-MEL-2 melanoma) was 403 nM, the TGI (SK-MEL-2 melanoma) was over 22200 nM and the GI50 (NCI-H226 lung) was over 12700 nM. The TGI (NCI-H226 lung) was over 50000 nM, the GI50 (ACHN renal) was 2260 nM and the TGI (ACHN renal) was over 50000 nM. The GI50 (NCI-H460 lung) was 187 nM, the TGI (NCI-H460 lung) was over 50000 nM and the GI50 (OVCAR-5 ovarian) was 314 nM. For the same molecule, the TGI (OVCAR-5 ovarian) was over 50000 nM, the GI50 (OVCAR-4 ovarian) was 1370 nM and the TGI (OVCAR-4 ovarian) was over 50000 nM. It also gave a GI50 (RPMI-8226 leukemia) of 240 nM, a TGI (RPMI-8226 leukemia) of over 50000 nM and a GI50 (MOLT-4 leukemia) of 1120 nM. The TGI (MOLT-4 leukemia) was over 50000 nM, the GI50 (OVCAR-3 ovarian) was 181 nM and the GI50 (DU-145 prostate) was 157 nM. For the same molecule, the TGI (DU-145 prostate) was 2050 nM, the GI50 (KM12 colon) was 260 nM and the TGI (KM12 colon) was over 16600 nM. It also gave a GI50 (A498 renal) of 304 nM, a TGI (A498 renal) of over 11100 nM and a GI50 (M14 melanoma) of 207 nM. It also gave a TGI (M14 melanoma) of 1180 nM, a GI50 (HCC-2998 colon) of 215 nM and a TGI (HCC-2998 colon) of 1120 nM. The GI50 (SNB-19 CNS) was 380 nM, the TGI (SNB-19 CNS) was over 50000 nM and the GI50 (SF-539 CNS) was 304 nM. For the same molecule, the TGI (SF-539 CNS) was 2790 nM, the GI50 (IGROV1 ovarian) was 845 nM and the TGI (IGROV1 ovarian) was over 29600 nM.
